In patent publication US10246453B2, “Benzenesulfonamide compounds and their use as therapeutic agents” (Xenon Pharmaceuticals Inc., priority 2016, dated 2019) one finds IC50 data, which are given here for 18 molecules.

Structures can show the parent of a compound that is named as a salt.

For data set [1], the target named is NaV1.1 (Homo sapiens (Human), UniProt P35498). Nature of the data set: Sodium Influx Assay (Flux), NaV1.1. The format is cell-based. As to conditions: Trex HEK293 cells, ANG2 dye; arithmetic mean.
In data set [2] the target is NaV1.6 (Homo sapiens (Human), UniProt Q9UQD0). In words: Sodium Influx Assay (Flux), NaV1.6. As to conditions: read-out: Flux NaV1.6 IC50; Trex HEK293 cells, ANG2 dye; arithmetic mean.
For data set [3], the target named is NaV1.5 (Homo sapiens (Human), UniProt Q14524). Nature of the data set: Sodium Influx Assay (Flux), NaV1.5. As to conditions: read-out: Flux NaV1.5 IC50; Trex HEK293 cells, ANG2 dye; arithmetic mean.
NaV1.5, sequence (Q14524 other isoform, or with tags, fused parts or gaps): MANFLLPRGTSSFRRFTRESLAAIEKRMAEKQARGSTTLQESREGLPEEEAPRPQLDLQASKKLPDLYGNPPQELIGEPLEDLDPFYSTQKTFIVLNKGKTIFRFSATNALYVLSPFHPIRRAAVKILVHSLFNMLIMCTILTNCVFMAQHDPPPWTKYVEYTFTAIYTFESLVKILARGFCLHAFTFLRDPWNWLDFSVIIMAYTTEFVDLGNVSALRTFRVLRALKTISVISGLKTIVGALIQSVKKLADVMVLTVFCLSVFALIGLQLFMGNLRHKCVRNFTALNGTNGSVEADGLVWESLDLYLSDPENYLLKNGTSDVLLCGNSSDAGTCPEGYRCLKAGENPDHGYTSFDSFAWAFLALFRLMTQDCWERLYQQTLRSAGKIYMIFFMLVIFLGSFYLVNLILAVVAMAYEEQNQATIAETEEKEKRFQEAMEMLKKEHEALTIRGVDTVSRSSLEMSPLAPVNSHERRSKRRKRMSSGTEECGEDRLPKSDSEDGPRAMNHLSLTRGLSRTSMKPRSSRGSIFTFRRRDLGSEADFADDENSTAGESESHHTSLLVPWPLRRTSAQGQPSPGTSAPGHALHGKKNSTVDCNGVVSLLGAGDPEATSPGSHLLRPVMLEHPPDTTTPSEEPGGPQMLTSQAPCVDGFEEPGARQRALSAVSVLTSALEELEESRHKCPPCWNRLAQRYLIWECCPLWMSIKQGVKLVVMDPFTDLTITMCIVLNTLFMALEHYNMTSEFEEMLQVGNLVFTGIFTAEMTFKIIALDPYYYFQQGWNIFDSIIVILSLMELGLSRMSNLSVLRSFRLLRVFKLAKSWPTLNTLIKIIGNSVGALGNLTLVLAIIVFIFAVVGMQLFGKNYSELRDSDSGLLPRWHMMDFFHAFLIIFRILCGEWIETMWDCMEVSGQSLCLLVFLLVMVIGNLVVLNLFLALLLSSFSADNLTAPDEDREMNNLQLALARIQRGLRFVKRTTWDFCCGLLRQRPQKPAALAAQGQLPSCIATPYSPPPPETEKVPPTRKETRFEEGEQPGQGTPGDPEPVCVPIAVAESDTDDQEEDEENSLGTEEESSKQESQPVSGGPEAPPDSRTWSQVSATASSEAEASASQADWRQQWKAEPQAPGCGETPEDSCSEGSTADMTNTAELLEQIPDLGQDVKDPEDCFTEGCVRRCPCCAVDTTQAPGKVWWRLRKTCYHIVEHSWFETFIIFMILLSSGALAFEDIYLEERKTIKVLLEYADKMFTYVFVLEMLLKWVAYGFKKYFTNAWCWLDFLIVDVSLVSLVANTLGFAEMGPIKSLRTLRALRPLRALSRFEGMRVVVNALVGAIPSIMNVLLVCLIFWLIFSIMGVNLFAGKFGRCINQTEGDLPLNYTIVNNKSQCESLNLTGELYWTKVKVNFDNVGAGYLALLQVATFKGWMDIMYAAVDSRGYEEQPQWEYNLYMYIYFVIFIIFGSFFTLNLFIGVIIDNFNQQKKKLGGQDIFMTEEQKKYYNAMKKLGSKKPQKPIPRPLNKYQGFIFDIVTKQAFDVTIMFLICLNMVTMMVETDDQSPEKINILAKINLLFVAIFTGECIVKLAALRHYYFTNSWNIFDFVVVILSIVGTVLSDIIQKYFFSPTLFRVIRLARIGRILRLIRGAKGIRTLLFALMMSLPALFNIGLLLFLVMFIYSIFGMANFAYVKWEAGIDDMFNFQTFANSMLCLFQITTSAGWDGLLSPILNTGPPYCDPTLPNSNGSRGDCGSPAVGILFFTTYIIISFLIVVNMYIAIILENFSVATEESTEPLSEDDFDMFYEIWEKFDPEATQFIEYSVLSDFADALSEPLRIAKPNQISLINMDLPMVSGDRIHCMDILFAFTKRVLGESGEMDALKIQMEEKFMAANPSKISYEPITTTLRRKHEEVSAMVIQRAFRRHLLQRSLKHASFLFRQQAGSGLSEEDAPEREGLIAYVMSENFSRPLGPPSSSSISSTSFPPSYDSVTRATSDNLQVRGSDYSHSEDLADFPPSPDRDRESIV

Broadly, the IC50 is the midpoint of a concentration-inhibition curve. In the case of `CC1(Oc2ccc(S(=O)(=O)Nc3nccs3)cc2Cl)CCN(Cc2cccc(C(F)F)c2)CC1` [Example 21, 3-chloro-4-((1-(3-(difluoromethyl)benzyl)-4-methylpiperidin-4-yl)oxy)-N-(thiazol-2-yl)benzenesulfonamide], the IC50 in data set [1] worked out at 3.15 µM; in data set [2], 3.18 µM; in data set [3], 4.69 µM.
Take `O=S(=O)(Nc1nccs1)c1ccc(OC2CCN(Cc3ccc(F)cc3)CC2)c(Cl)c1` [Example 22, 3-chloro-4-((1-(4-fluorobenzyl)piperidin-4-yl)oxy)-N-(thiazol-2-yl)benzenesulfonamide 2,2,2-trifluoroacetate]: the half-inhibitory concentration (IC50) came out at 14.8 µM in data set [1], 3.64 µM in data set [2] and 16.1 µM in data set [3].
For `O=S(=O)(Nc1nccs1)c1ccc(OC2CCN(Cc3ccc(C(F)(F)F)cc3)CC2)c(Cl)c1` [Example 23, 3-chloro-N-(thiazol-2-yl)-4-((1-(4-(trifluoromethyl)benzyl)piperidin-4-yl)oxy)benzenesulfonamide 2,2,2-trifluoroacetate], in that order: more than 30 µM, more than 30 µM and 29.6 µM.
On the same counts, the results for `Cc1ccc(CN2CCC(Oc3ccc(S(=O)(=O)Nc4nccs4)cc3Cl)CC2)cc1` [Example 24, 3-chloro-N-(thiazol-2-yl)-4-((1-(4-methylbenzyl)piperidin-4-yl)oxy)benzenesulfonamide 2,2,2-trifluoroacetate] are 12.6 µM, 2.54 µM and 13.5 µM.
Regarding `CN(c1ccc(S(=O)(=O)Nc2ncns2)cc1Cl)[C@H]1CCN(Cc2cccc(Cl)c2)C1` [Example 30, (S)-3-chloro-4-((1-(3-chlorobenzyl)pyrrolidin-3-yl)(methyl)amino)-N-(1,2,4-thiadiazol-5-yl)benzenesulfonamide], the 50% inhibitory concentration (IC50) in data set [1] came out at 7.97 µM; in data set [2], 0.021 µM; in data set [3] it was 18.7 µM.
For the molecule `CN(c1ccc(S(=O)(=O)Nc2ncns2)cc1Cl)[C@H]1CCN(Cc2cccc(Cl)c2F)C1` [Example 32, (S)-3-chloro-4-((1-(3-chloro-2-fluorobenzyl)pyrrolidin-3-yl)(methyl)amino)-N-(1,2,4-thiadiazol-5-yl)benzenesulfonamide], the concentration for half-maximal inhibition (IC50) in data set [1] was found to be 6.55 µM; in data set [2], 0.047 µM; in data set [3] it was 7.41 µM.
For `Cc1cccc(CN2CC[C@H](N(C)c3ccc(S(=O)(=O)Nc4ncns4)cc3Cl)C2)c1F` [Example 34, (S)-3-chloro-4-((1-(2-fluoro-3-methylbenzyl)pyrrolidin-3-yl)(methyl)amino)-N-(1,2,4-thiadiazol-5-yl)benzenesulfonamide 2,2,2-trifluoroacetate], in that order: 19.9 µM, 0.039 µM and more than 30 µM.
As for `Cc1ccc(F)c(CN2CC[C@H](N(C)c3ccc(S(=O)(=O)Nc4ncns4)cc3Cl)C2)c1` [Example 35, (S)-3-chloro-4-((1-(2-fluoro-5-methylbenzyl)pyrrolidin-3-yl)(methyl)amino)-N-(1,2,4-thiadiazol-5-yl)benzenesulfonamide], the IC50 is 15.9 µM in data set [1], 0.021 µM in data set [2] and more than 30 µM in data set [3].
On the same counts, the results for `CCN(c1ccc(S(=O)(=O)Nc2ncns2)cc1Cl)[C@H]1CCN(Cc2cccc(C)c2)C1` [Example 37, (S)-3-chloro-4-(ethyl(1-(3-methylbenzyl)pyrrolidin-3-yl)amino)-N-(1,2,4-thiadiazol-5-yl)benzenesulfonamide] are more than 30 µM, 0.195 µM and more than 30 µM.
`CN(c1cc(F)c(S(=O)(=O)Nc2nccs2)cc1Cl)[C@H]1CCN(Cc2ccccc2)C1` [Example 39, (S)-4-((1-benzylpyrrolidin-3-yl)(methyl)amino)-5-chloro-2-fluoro-N-(thiazol-2-yl)benzenesulfonamide bis(trifluoroacetic acid) salt]: the IC50 in data set [1] came to 4.96 µM; in data set [2] it was 0.732 µM; in data set [3] it was 13.1 µM.
On the same counts, the results for `C[C@@H](c1ccccc1)N1CC[C@H](N(C)c2ccc(S(=O)(=O)Nc3nccs3)cc2Cl)C1` [Example 42, 3-chloro-4-(methyl((S)-1-((S)-1-phenylethyl)pyrrolidin-3-yl)amino)-N-(thiazol-2-yl)benzenesulfonamide] are 4.38 µM, 0.155 µM and 9.11 µM.
For `C[C@H](c1ccccc1)N1CC[C@H](N(C)c2cc(F)c(S(=O)(=O)Nc3cccc(F)n3)cc2Cl)C1` [Example 45, 5-chloro-2-fluoro-N-(6-fluoropyridin-2-yl)-4-(methyl((S)-1-((R)-1-phenylethyl)pyrrolidin-3-yl)amino)benzenesulfonamide 2,2,2-trifluoroacetate], in that order: 11.2 µM, 1.98 µM and more than 30 µM.
For `COc1ccc(CN2CCC(Oc3ccc(S(=O)(=O)Nc4nccs4)cc3Cl)CC2)cc1` [Example 48, 3-chloro-4-((1-(4-methoxybenzyl)piperidin-4-yl)oxy)-N-(thiazol-2-yl)benzenesulfonamide], in that order: 10.5 µM, 3.67 µM and 7.82 µM.
Turning to `O=S(=O)(Nc1nccs1)c1ccc(OC2CCN(C3CCc4ccccc43)CC2)c(Cl)c1` (stereo not drawn) [Example 49, 3-chloro-4-((1-(2,3-dihydro-1H-inden-1-yl)piperidin-4-yl)oxy)-N-(thiazol-2-yl)benzenesulfonamide 2,2,2-trifluoroacetate], the IC50 in data set [1] was found to be 5.59 µM; in data set [2], 0.491 µM; in data set [3], 5.4 µM.
Regarding `O=S(=O)(Nc1nccs1)c1ccc(NC2CN(Cc3ccccc3)C2)c(Cl)c1` [Example 50, 4-((1-benzylazetidin-3-yl)amino)-3-chloro-N-(thiazol-2-yl)benzenesulfonamide 2,2,2-trifluoroacetate], the IC50 in data set [1] came out at 4.15 µM; in data set [2], 1.08 µM; in data set [3], 5.71 µM.
With `O=S(=O)(Nc1nccs1)c1ccc(OC2CCN(Cc3ccc4ccccc4c3)CC2)c(Cl)c1` [Example 51, 3-chloro-4-((1-(naphthalen-2-ylmethyl)piperidin-4-yl)oxy)-N-(thiazol-2-yl)benzenesulfonamide 2,2,2-trifluoroacetate], the 50% inhibitory concentration (IC50) was 17.6 µM in data set [1], 6.58 µM in data set [2] and 3.48 µM in data set [3].
For the molecule `CC(c1ccccc1)N1CCC(Oc2cc(F)c(S(=O)(=O)Nc3nccs3)cc2Cl)CC1` (stereo not drawn) [Example 54, 5-chloro-2-fluoro-4-((1-(1-phenylethyl)piperidin-4-yl)oxy)-N-(thiazol-2-yl)benzenesulfonamide], the IC50 in data set [1] was found to be 9.93 µM; in data set [2], 0.156 µM; in data set [3], 16.7 µM.
Regarding `C[C@H](c1ccccc1)N1CCC(Oc2cc(F)c(S(=O)(=O)Nc3nccs3)cc2Cl)CC1` [Example 56, (R)-5-chloro-2-fluoro-4-((1-(1-phenylethyl)piperidin-4-yl)oxy)-N-(thiazol-2-yl)benzenesulfonamide 2,2,2-trifluoroacetate], the IC50 in data set [1] stood at 12.5 µM; in data set [2] it was 0.392 µM; in data set [3], 10.1 µM.
